From patent publication US20260263481A1, “COMPOSITION FOR TREATING OR PREVENTING KIDNEY DISEASES” (ORGANOIDSCIENCES LTD., priority 2022, published 2026) come the findings set out here.

Data set [1] has as its system human renal tubule cell line HK-2. Nature of the data set: TUNEL assay for apoptosis in HK-2 cells. It counts as cell-based. Here is the method:
To evaluate the effect of PGF2α on kidney diseases, the influence of PGF2α on apoptosis in kidney cells induced by antibiotic treatment was assessed. Colistin, a type of antibiotic, is known to accumulate in proximal tubular cells and induce apoptosis by increasing the expression of the Fas death receptor or by increasing the generation of reactive oxygen species. […] After 48 hours of incubation, a TUNEL assay was conducted to assess apoptosis. Cells that tested positive in the TUNEL assay were considered apoptotic cells.
Specifically, a vehicle-treated group, a group treated with vehicle and colistin, and a group treated with bimatoprost and colistin were prepared. Apoptosis in HK-2 cells was analyzed using a TUNEL assay.

Data set [2] shares this test system. Kind of data set: Reactive oxygen species (ROS) generation in HK-2 cells. It counts as cell-based. The procedure:
After 48 hours of incubation, ROS generated in the HK-2 cells was analyzed.
Specifically, intracellular reactive oxygen species (ROS) levels were measured by fluorescence spectroscopy after treatment with bimatoprost and/or colistin. Saline containing 1% DMSO was used as a vehicle.

The test system is the same in data set [3]. Nature of the data set: Cytotoxicity / cell viability assay in HK-2 cells. Here is the method:
Specifically, the human renal tubule cell line HK-2 was treated with PGF2α at a concentration of 50 μM and with colistin at 400 μg/mL. In the case of pretreatment with PGF2α, colistin was treated 24 hours after treatment with PGF2α, and the cells were cultured for 48 hours, followed by an assay to evaluate cytotoxicity. In the case of co-treatment, PGF2α and colistin were treated simultaneously, and the cells were cultured for 48 hours, followed by the assay.
Specifically, bimatoprost was treated to human renal tubule cell line HK-2 at concentrations of 0.1 μM, 0.5 μM, 1.0 μM, 5.0 μM, 10 μM, 20 μM, and 50 μM, and the vehicle-treated group was used as a control. In the case of pretreatment with bimatoprost, colistin was treated 24 hours after bimatoprost treatment, followed by incubation for 48 hours and a cytotoxicity assay. In the case of co-treatment, bimatoprost and colistin were treated simultaneously, followed by 48 hours of incubation and the cytotoxicity assay.

A further data set relates to Escherichia coli. Kind of data set: Paper disk antibacterial activity on LB medium. In kind it is cell-based. Conditions: 24 hours; for growth of E. coli: substance alone on paper disk. Here is the method:
Specifically, Escherichia coli, a Gram-negative bacterium, was spread onto an LB medium, and paper disks were treated with bimatoprost and/or colistin. Saline containing 1% DMSO was used as a vehicle. After placing the paper disks onto the LB medium, incubation was carried out for 24 hours.

Another data set concerns C57BL/6N mice. Nature of the data set: Colistin-induced nephrotoxicity model in mice. It counts as in vivo. Conditions: 14 days. Here is the method:
Specifically, a colistin-induced nephrotoxicity model was established using 6-week-old C57BL/6N mice. The control group (vehicle-treated group) was prepared by intraperitoneally injecting mice with vehicle (saline containing 1% DMSO) every 12 hours for 14 days. The colistin-treated group was prepared by intraperitoneally injecting colistin at 10 mg/kg every 12 hours for 14 days. The bimatoprost-treated group was prepared by intraperitoneally injecting bimatoprost at 1 mg/kg every 12 hours for 14 days. The bimatoprost and colistin co-treatment group was prepared by intraperitoneally injecting bimatoprost at 1 mg/kg and colistin at 10 mg/kg every 12 hours for 14 days. After 14 days of administration, tissue, blood, and kidneys were collected from the mice, and key indicators of kidney disease, including kidney color, body weight, blood urea nitrogen levels, blood creatinine levels, and expression of kidney injury marker-1 (KIM-1), were analyzed.

Where [4] appears, read: PGF2α 50 μM co-treated with colistin 400 μg/mL, 48 hours.
Setting [5] is: bimatoprost 1 mg/kg + colistin 10 mg/kg i.p. every 12 hours.
Where [6] appears, read: colistin 10 mg/kg i.p. every 12 hours.

As to `CCCCC[C@H](O)/C=C/[C@@H]1[C@@H](C/C=C\CCCC(=O)O)[C@@H](O)C[C@H]1O` [PGF2α, prostaglandin F2α], in data set [1] (setting [4]), the “colistin-induced increase in apoptosis” value is recorded as “reduced by about half”. In addition, the “reduction of colistin-induced increase in ROS” value in data set [2] (setting [4]) is on record as “approximately 1.5 fold”. In data set [2] (PGF2α alone, 50 μM, 48 hours), the ROS levels result is listed as “decreased”.

Regarding `CCNC(=O)CCC/C=C\C[C@@H]1[C@@H](/C=C/[C@@H](O)CCc2ccccc2)[C@H](O)C[C@@H]1O` [bimatoprost], in data set [3] (bimatoprost pretreated at 10 μM), the “extent of cell death induced by colistin compared to cells not treated with bimatoprost” value was “reduced by approximately fourfold”. In addition, the “effect on colistin-induced cell death” value in data set [3] (bimatoprost pretreatment 24 hours before colistin, then 48 hours) is “reduced colistin-induced cell death”. Also, the “number of apoptotic cells compared to the group treated with vehicle and colistin” value in data set [1] (bimatoprost and colistin co-treated) is “reduced by approximately threefold”. The “colistin-induced increase in ROS” value in data set [2] (bimatoprost and colistin, level similar to vehicle-treated group) is “reduced to approximately half”. In addition, in the data set on Escherichia coli (colistin and bimatoprost together on paper disk), the “inhibitory effect on E. coli growth” value is reported as “at the same level as that observed in the group treated with colistin alone”. In addition, the “growth of E. coli” value in the data set with Escherichia coli is “not inhibited”. In the data set on C57BL/6N mice (setting [5]), the “KIM-1 area compared to the colistin-treated group” value is recorded as “reduced by about eight times”, the “KIM-1 expression in kidney” value is recorded as “barely observed”, the blood creatinine levels entry is recorded as “lower than those in the colistin-treated group” and the “blood urea nitrogen levels” value is “lower than those in the colistin-treated group”. Moreover, in the data set on C57BL/6N mice (setting [5]), the body weight result is given as “weight loss was not observed” and the kidney color entry was “recovered to a level similar to that of the vehicle-treated group”.

Consider colistin, for which the “cells survived compared to those not treated with colistin” value in data set [3] (colistin 400 μg/mL, 48 hours) is “about 50%”. Besides, the “increase in apoptosis compared to cells not treated with colistin” value in data set [1] (colistin 400 μg/mL, 48 hours) is given as “approximately 30%”. The “apoptotic cells (TUNEL)” value in data set [1] (vehicle and colistin vs vehicle-treated group (Example 2-2)) is “significant increase in apoptotic cells”. For the same compound, the “ROS levels compared to cells not treated with colistin” value in data set [2] (colistin 400 μg/mL, 48 hours (Example 1-3)) is on record as “more than fivefold”. Besides, the “increase in ROS levels compared to the vehicle-treated group” value in data set [2] (colistin-treated group (Example 2-3), fluorescence spectroscopy) is recorded as “more than 2.5 fold”. Further, the “growth of E. coli” value with Escherichia coli is listed as “markedly suppressed”. For the same compound, in the data set on C57BL/6N mice (setting [6]), the “KIM-1 expression in kidney” value was “clearly observed”, the “blood creatinine levels relative to vehicle-treated group” value is reported as “approximately 1.5 times”, the “blood urea nitrogen levels relative to vehicle-treated group” value is “approximately 1.5 times” and the body weight entry is “reduction in body weight after day 6”. Moreover, the kidney color entry in the data set on C57BL/6N mice (setting [6]) was “became paler”.
